Data published in patent US7943551B2, “3-cyclopropyl-4-(3-thiobenzoyl) pyrazoles and their use as herbicides” (Bayer Cropscience AG, priority 2007, dated 2011).

How the values were obtained:
Format in all cases: in vivo
[1] = system: Matricaria inodora; experiment: Post-emergence herbicidal action; settings: Tripleurospermum inodorum, 80 g of a.i./ha, read-out: Herbicidal activity in % against MATIN
Description: (§1) Seeds of mono- and dicotyledonous harmful plants are placed in sandy loam in cardboard pots, covered with soil and grown in the greenhouse under good growth conditions. Two to three weeks after sowing, the test plants are treated at the three-leaf stage. The compounds according to the invention, which are formulated as wettable powders or as emulsion concentrates, are sprayed at an application rate of 600 to 800 l of water/ha (converted) in a dosage of 80 grams per hectare onto the surface of the green plant parts. The visual scoring of the damage to the harmful plants is carried out 3-4 weeks after the treatment. Here, the compounds of Nos. 1-39, 1-40, 1-1382 and 1-2091 show an activity of at least 90% against Echinochloa crus galli. The compounds of Nos. 1-3, 1-44 and 1-2091 shown an activity of at least 90% against Abutilon theophrasti. The compounds of Nos. 1-39, 1-40 and 1-1382 show an activity of at least 90% against Veronica persica. The compounds of Nos. 1-3, 1-38, 1-39, 1-1406 and 1-1407 show an activity of at least 90% against Stellaria media.
(§2) The comparative tests of Tables 1 to 24 below show the superiority of the compounds according to the invention over the compounds known from the prior art.
(§3) • ABUTH Abutilon theophrasti ALOMY Alopecurus myosuroides • AMARE Amaranthus retroflexus AVEFA Avena fatua • CHEAL Chenopodium album ECHCG Echinochloa crus galli • GALAP Galium aparine LOLMU Lolium multiflorum • MATIN Matricaria inodora PHBPU Pharbitis purpureum • POLCO Fallopia convolvulus STEME Stellaria media • VERPE Veronica persica VIOTR Viola tricolor • XANST Xanthium strumarium Crop Plants • GLXMA Glycine max (soybeans) TRZAS Triticum aestivum (wheat) • ZEAMX Zea mays (corn)

[2] = system: Pharbitis purpureum; experiment: Post-emergence herbicidal action; settings: 80 g of a.i./ha
Description: as §1, §2, §3

[3] = system: Stellaria media; experiment: Post-emergence herbicidal action; settings: 80 g of a.i./ha, visual scoring 3-4 weeks after treatment; for pest or weed control at 80 g/ha: Stellaria media, read-out: Herbicidal activity in % against STEME
Description: as §1, §2, §3

[4] = system: Echinochloa crus galli; experiment: Post-emergence herbicidal action; settings: read-out: Herbicidal activity in % against ECHCG; for pest or weed control at 80 g/ha: 80 g of a.i./ha, visual scoring 3-4 weeks after treatment; for pest or weed control at 20 g/ha: 20 g of a.i./ha
Description: as §1, §2, §3

[5] = system: Abutilon theophrasti; experiment: Post-emergence herbicidal action; settings: for pest or weed control at 80 g/ha / pest or weed control at 20 g/ha: Abutilon theophrasti, read-out: Herbicidal activity in % against ABUTH; for pest or weed control at 20 g/ha: 20 g of a.i./ha
Description: as §1, with “The compounds according to the invention, which are formulated as wettable powders or as emulsion concentrates, are sprayed at an application rate of 600 to 800 l of water/ha (converted) in a dosage of 80 grams per hectare onto the surface of the green plant parts.” left out
as §2, §3

[6] = system: Viola tricolor; experiment: Post-emergence herbicidal action; settings: 80 g of a.i./ha, read-out: Herbicidal activity in % against VIOTR
Description: as §1, §2, §3

[7] = system: Xanthium strumarium; experiment: Post-emergence herbicidal action; settings: read-out: Herbicidal activity in % against XANST; for pest or weed control at 20 g/ha: 20 g of a.i./ha; for pest or weed control at 80 g/ha: 80 g of a.i./ha
Description: as §1, §2, §3

[8] = system: Viola tricolor; experiment: Pre-emergence herbicidal action; settings: 80 g of a.i./ha
Text: Seeds or rhizome pieces of mono- and dicotyledonous harmful plants are placed in sandy loam in pots of a diameter of 9 to 13 cm and covered with soil. The herbicides, formulated as emulsifiable concentrates or dusts, are applied to the surface of the covering soil in the form of aqueous dispersions or suspensions or emulsions at an application rate of 300 to 800 l of water/ha (converted), […] For further cultivation of the plants, the pots are then kept in a greenhouse under optimum conditions. The visual scoring of the damage to the harmful plants is carried out 3-4 weeks after the treatment. Here, the compounds of Nos. 1-3, 1-15, 1-44 and 1-1407 show an activity of at least 90% against Echinochloa crus galli. The compounds of Nos. 1-15, 1-45, 1-1407 and 1-1419 show an activity of at least 90% against Abutilon theophrasti. The compounds of Nos. 1-3, 1-45, 1-1406 and 1-1418 show an activity of at least 90% against Amaranthus retroflexus. The compounds of Nos. 1-44, 1-1406, 1-1407 and 1-1419 show an activity of at least 90% against Stellaria media.
as §2, §3

[9] = system: Veronica persica; experiment: Post-emergence herbicidal action; settings: 80 g of a.i./ha, visual scoring 3-4 weeks after treatment, read-out: Herbicidal activity in % against VERPE
Description: as §1, §2, §3

[10] = system: Abutilon theophrasti; experiment: Pre-emergence herbicidal action; settings: 320 g of a.i./ha, visual scoring 3-4 weeks after treatment
Text: (§4) Seeds or rhizome pieces of mono- and dicotyledonous harmful plants are placed in sandy loam in pots of a diameter of 9 to 13 cm and covered with soil. The herbicides, formulated as emulsifiable concentrates or dusts, are applied to the surface of the covering soil in the form of aqueous dispersions or suspensions or emulsions at an application rate of 300 to 800 l of water/ha (converted), at a dosage of 320 grams per hectare. For further cultivation of the plants, the pots are then kept in a greenhouse under optimum conditions. The visual scoring of the damage to the harmful plants is carried out 3-4 weeks after the treatment. Here, the compounds of Nos. 1-3, 1-15, 1-44 and 1-1407 show an activity of at least 90% against Echinochloa crus galli. The compounds of Nos. 1-15, 1-45, 1-1407 and 1-1419 show an activity of at least 90% against Abutilon theophrasti. The compounds of Nos. 1-3, 1-45, 1-1406 and 1-1418 show an activity of at least 90% against Amaranthus retroflexus. The compounds of Nos. 1-44, 1-1406, 1-1407 and 1-1419 show an activity of at least 90% against Stellaria media.
as §2, §3

[11] = system: Matricaria inodora; experiment: Pre-emergence herbicidal action; settings: Tripleurospermum inodorum, 320 g of a.i./ha, read-out: Herbicidal activity in % against MATIN
Text: as §4, §2, §3

[12] = 80 g of a.i./ha, visual scoring 3-4 weeks after treatment

Cc1c(C(=O)c2c(C3CC3)nn(C)c2O)ccc(Cl)c1SCC1CC1 [drawing 39]
pest or weed control at 80 g/ha [1]: 70%
Herbicidal activity in % against PHBPU [2]: 70%
Herbicidal activity in % against STEME [3]: 100%
pest or weed control at 80 g/ha [4]: 90%

CCSc1c(S(C)(=O)=O)ccc(C(=O)c2c(C3CC3)nn(C)c2O)c1Cl [drawing 48, reference compound]
pest or weed control at 80 g/ha [5, 12]: 80%
pest or weed control at 80 g/ha [6]: 60%
pest or weed control at 80 g/ha [1]: 0%

Cn1nc(C2CC2)c(C(=O)c2ccc(Cl)c(SCC3CC3)c2Cl)c1O
pest or weed control at 20 g/ha [5]: 60%
pest or weed control at 20 g/ha [7]: 70%

CCSc1c(S(C)(=O)=O)ccc(C(=O)c2c(C3CC3)nn(C)c2O)c1C [reference compound]
pest or weed control at 80 g/ha [6]: 70%
pest or weed control at 80 g/ha [7]: 80%
pest or weed control at 80 g/ha [4]: 80%

Cc1c(C(=O)c2c(C3CC3)nn(C)c2O)ccc(Cl)c1SCC1CC1 [No. 1-1406, 4-(4-chloro-3′-cyclopropylmethylthio-2-methylbenzoyl)-3-cyclopropyl-5-hydroxy-1-methylpyrazole]
pest or weed control at 80 g/ha [3]: ≥ 90%

CSc1c(C(F)(F)F)ccc(C(=O)c2c(C3CC3)nn(C)c2O)c1C [drawing 46, reference compound]
pest or weed control at 20 g/ha [5]: 70%
pest or weed control at 20 g/ha [4]: 60%

COCCSc1c(Cl)ccc(C(=O)c2c(C3CC3)nn(C)c2O)c1C [drawing 41]
pest or weed control at 80 g/ha [1]: 80%
Herbicidal activity in % against PHBPU [2]: 80%
pest or weed control at 80 g/ha [3]: 100%
pest or weed control at 80 g/ha [4]: 90%

CC[S+]([O-])c1c(S(C)(=O)=O)ccc(C(=O)c2c(C3CC3)nn(C)c2O)c1C (stereo not shown)
Herbicidal activity in % against VIOTR [8]: 60%

COCCSc1c(S(C)(=O)=O)ccc(C(=O)c2c(C3CC3)nn(C)c2O)c1C
pest or weed control at 80 g/ha [6]: 90%
pest or weed control at 80 g/ha [7]: 90%
pest or weed control at 80 g/ha [4]: 90%

COCCSc1c(S(C)(=O)=O)ccc(C(=O)c2c(C3CC3)nn(C)c2O)c1Cl [drawing 51]
Herbicidal activity in % against PHBPU [2]: 60%
Herbicidal activity in % against STEME [3]: 90%
pest or weed control at 80 g/ha [9]: 100%

CCSc1c(C(F)(F)F)ccc(C(=O)c2c(C3CC3)nn(C)c2O)c1C
Herbicidal activity in % against ABUTH [10]: 90%
pest or weed control at 320 g/ha [11]: 0%

COCCSc1c(C(F)(F)F)ccc(C(=O)c2c(C3CC3)nn(C)c2O)c1C [No. 1-2091, 3-cyclopropyl-5-hydroxy-4-(3-(2-methoxyethyl)thio-2-methyl-4-trifluoromethylbenzoyl)-1-methylpyrazole]
pest or weed control at 80 g/ha [5, 12]: ≥ 90%
pest or weed control at 80 g/ha [4]: ≥ 90%

CSc1c(S(C)(=O)=O)ccc(C(=O)c2c(C3CC3)nn(C)c2O)c1Cl [drawing 50, reference compound]
pest or weed control at 80 g/ha [5, 12]: 80%
pest or weed control at 80 g/ha [6]: 60%
pest or weed control at 80 g/ha [1]: 30%

COCCSc1c(C(F)(F)F)ccc(C(=O)c2c(C3CC3)nn(C)c2O)c1C [drawing 45]
pest or weed control at 20 g/ha [5]: 80%
pest or weed control at 20 g/ha [4]: 80%

CCSc1c(Cl)ccc(C(=O)c2c(C3CC3)nn(C)c2O)c1C [drawing 40, reference compound]
pest or weed control at 80 g/ha [1]: 40%
Herbicidal activity in % against PHBPU [2]: 40%
pest or weed control at 80 g/ha [3]: 90%
pest or weed control at 80 g/ha [4]: 80%

CCSc1c(Cl)ccc(C(=O)c2c(C3CC3)nn(C)c2O)c1Cl [reference compound]
pest or weed control at 20 g/ha [5]: 40%
pest or weed control at 20 g/ha [7]: 50%

COCC[S+]([O-])c1c(S(C)(=O)=O)ccc(C(=O)c2c(C3CC3)nn(C)c2O)c1C (stereo not shown) [drawing 11]
Herbicidal activity in % against VIOTR [8]: 70%

COCCSc1c(C(F)(F)F)ccc(C(=O)c2c(C3CC3)nn(C)c2O)c1C [drawing 19]
Herbicidal activity in % against ABUTH [10]: 100%
pest or weed control at 320 g/ha [11]: 60%

CSc1c(S(C)(=O)=O)ccc(C(=O)c2c(C3CC3)nn(C)c2O)c1C [drawing 30, reference compound]
pest or weed control at 80 g/ha [6]: 70%
pest or weed control at 80 g/ha [7]: 60%
pest or weed control at 80 g/ha [4]: 80%

COCCSc1c(S(C)(=O)=O)ccc(C(=O)c2c(C3CC3)nn(C)c2O)c1Cl [drawing 47]
Herbicidal activity in % against ABUTH [5, 12]: 90%
pest or weed control at 80 g/ha [6]: 70%
pest or weed control at 80 g/ha [1]: 70%

Cc1c(C(=O)c2c(C3CC3)nn(C)c2O)ccc(S(C)(=O)=O)c1SCC1CC1 [drawing 29]
pest or weed control at 80 g/ha [6]: 90%
pest or weed control at 80 g/ha [7]: 90%
pest or weed control at 80 g/ha [4]: 100%

CSc1c(C(F)(F)F)ccc(C(=O)c2c(C3CC3)nn(C)c2O)c1C [drawing 20]
Herbicidal activity in % against ABUTH [10]: 50%
pest or weed control at 320 g/ha [11]: 0%

Cc1c(C(=O)c2c(C3CC3)nn(C)c2O)ccc(S(C)(=O)=O)c1SCC1CC1 [No. 1-38, 3-cyclopropyl-4-(3-cyclopropylmethylthio-2-methyl-4-methylsulfonylbenzoyl)-5-hydroxy-1-methylpyrazole]
pest or weed control at 80 g/ha [3]: ≥ 90%

COCCSc1c(S(C)(=O)=O)ccc(C(=O)c2c(C3CC3)nn(C)c2O)c1Cl [No. 1-3, 4-(2-chloro-3-(2-methoxyethyl)thio-4-methylsulfonylbenzoyl)-3-cyclopropyl-5-hydroxy-1-methylpyrazole]
pest or weed control at 80 g/ha [5, 12]: ≥ 90%
pest or weed control at 80 g/ha [3]: ≥ 90%

CSc1c(S(C)(=O)=O)ccc(C(=O)c2c(C3CC3)nn(C)c2O)c1Cl [drawing 52, reference compound]
Herbicidal activity in % against PHBPU [2]: 50%
pest or weed control at 80 g/ha [3]: 80%
pest or weed control at 80 g/ha [9]: 80%
